ChEMBL document CHEMBL6134905, “Double Swords in One: Novel Selective PI3K/110β PROTAC Degraders for the Treatment of Multidrug-Resistant Cancer by Activating ERS and Inhibiting P-gp” (J Med Chem, 2025)
Calls of active or inactive are those of the source. The calls are words filed in the database; no cut-off is given here.

Legend:
MCF7/ADM [1] = test: Induction of apoptosis in human MCF7/ADM cells assessed as decrease in bax expression at 12.5 uM incubated for 24 hrs by Western blot analysis; type: functional, cell-based
Mitochondrial membrane = test: Induction of mitochondrial membrane potential loss in human A549/DDP cells assessed as increase in green fluorescence at 25 uM incubated for 48 hrs by JC-1 staining based flow cytometry
[2] = molecular target: T1, von Hippel-Lindau disease tumor suppressor/Phosphatidylinositol 4,5-bisphosphate 3-kinase catalytic subunit beta isoform (Homo sapiens, UniProt P42338+P40337); test: PROTAC activity at PI3K-p110beta/VHL in human MCF7/ADM cells assessed as reduction in PI3K-p110beta level incubated for 2 hrs by Western blot analysis; type: cell-based
[3] = molecular target: T1, von Hippel-Lindau disease tumor suppressor/Phosphatidylinositol 4,5-bisphosphate 3-kinase catalytic subunit beta isoform; test: PROTAC activity at PI3K-p110beta/VHL in human A549/DDP cells assessed as reduction in PI3K-p110beta level incubated for 12 to 36 hrs hrs by Western blot analysis; type: cell-based; details: time 12-36 hrs
[4] = molecular target: T2, ATP-dependent translocase ABCB1 (Homo sapiens, UniProt P08183); test: Inhibition of P-gp in human MCF7/ADM cells assessed as increase in intracellular Rh123 accumulation at 6.25 to 25 uM incubated for 24 hrs by flow cytometry analysis; type: cell-based; details: dose 6.25-25 µM
MCF7/ADM [5] = test: Antitumor activity against human MCF7/ADM cells xenografted in BALB/c mouse assessed as increase in bax expression in tumor at 50 mg/kg, ip by Western blot analysis; type: functional, organism-based
[6] = molecular target: von Hippel-Lindau disease tumor suppressor/Phosphatidylinositol 4,5-bisphosphate 3-kinase catalytic subunit alpha isoform (Homo sapiens, UniProt P42336+P40337); test: PROTAC activity at PI3K-p110alpha/VHL in human A549/DDP cells assessed as induction of PI3K-p110alpha degradation incubated for 24 hrs by Western blot analysis; type: cell-based; details: for Activity: dose 0.04-50 µM
MCF7/ADM [7] = test: Induction of apoptosis in human MCF7/ADM cells assessed as increase in caspase-8 expression at 12.5 uM incubated for 24 hrs by Western blot analysis; type: functional, cell-based
[8] = Toxicity in BALB/c mouse xenografted with human MCF7/ADM cells assessed as change in ALT level at 50 mg/kg, ip; type: organism-based; details: in vivo
MCF7/ADM [9] = test: Antitumor activity against human MCF7/ADM cells xenografted in BALB/c mouse assessed as reduction in tumor volume at 50 mg/kg, ip measured every 2 days; type: functional, organism-based; details: time 2.0 day
[10] = molecular target: T2, ATP-dependent translocase ABCB1; test: Inhibition of P-gp in human MCF7/ADM cells at 6.25 to 25 uM incubated for 24 hrs; type: cell-based; details: dose 6.25-25 µM
MCF7/ADM [11] = test: Antitumor activity against human MCF7/ADM cells xenografted in BALB/c mouse assessed as increase in cleaved caspase-9 expression in tumor at 50 mg/kg, ip by Western blot analysis; type: functional, organism-based
MCF7/ADM [12] = test: Antitumor activity against human MCF7/ADM cells xenografted in BALB/c mouse assessed as increase in CHOP expression in tumor at 50 mg/kg, ip by Western blot analysis; type: functional, organism-based
MCF7/ADM [13] = test: Induction of ROS level in human MCF7/ADM cells at 25 uM measured for 24 hrs by MitoSOX staining based analysis; type: functional, cell-based
A549/CDDP [14] = test: Upregulation of CHOP expression in human A549/DDP cells at 0.25 to 25 uM incubated for 24 hrs by Western blot analysis; type: functional, cell-based; details: dose 0.25-25 µM
[15] = Toxicity in BALB/c mouse xenografted with human MCF7/ADM cells assessed as lung damage at 50 mg/kg, ip by H and E staining based analysis; type: organism-based; details: in vivo
[16] = Toxicity in BALB/c mouse xenografted with human MCF7/ADM cells assessed as liver damage at 50 mg/kg, ip by H and E staining based analysis; type: organism-based; details: in vivo
A549/CDDP [17] = test: Induction of apoptosis in human A549/DDP cells assessed as increase in caspase-3 expression at 12.5 uM incubated for 24 hrs by Western blot analysis; type: functional, cell-based
[18] = molecular target: T1, von Hippel-Lindau disease tumor suppressor/Phosphatidylinositol 4,5-bisphosphate 3-kinase catalytic subunit beta isoform; test: PROTAC activity at PI3K-p110beta/VHL in human A549/DDP cells assessed as induction of PI3K-p110beta degradation at 25 uM measured for 24 hrs in presence of VHL ligand by Western blot analysis; type: cell-based
[19] = Toxicity in BALB/c mouse xenografted with human MCF7/ADM cells assessed as change in platelet count at 50 mg/kg, ip; type: organism-based; details: in vivo
[20] = Antitumor activity against human MCF7/ADM cells assessed as cell viability incubated for 24 hrs by MTT assay; type: functional, cell-based
[21] = Toxicity in BALB/c mouse xenografted with human MCF7/ADM cells assessed as kidney damage at 50 mg/kg, ip by H and E staining based analysis; type: organism-based; details: in vivo
MCF7/ADM [22] = test: Antitumor activity against human MCF7/ADM cells xenografted in BALB/c mouse assessed as increase in caspase-12 expression in tumor at 50 mg/kg, ip by Western blot analysis; type: functional, organism-based
[23] = molecular target: T1, von Hippel-Lindau disease tumor suppressor/Phosphatidylinositol 4,5-bisphosphate 3-kinase catalytic subunit beta isoform; test: PROTAC activity at PI3K-p110beta/VHL in human A549/DDP cells assessed as induction of PI3K-p110beta degradation at 25 uM measured for 24 hrs in presence of MG132 by Western blot analysis; type: cell-based
[24] = Toxicity in BALB/c mouse xenografted with human MCF7/ADM cells assessed as change in BUN level at 50 mg/kg, ip; type: organism-based; details: in vivo
[25] = Toxicity in BALB/c mouse xenografted with human MCF7/ADM cells assessed as tumor damage at 50 mg/kg, ip by H and E staining based analysis; type: organism-based; details: in vivo
MCF7/ADM [26] = test: Antitumor activity against human MCF7/ADM cells xenografted in BALB/c mouse assessed as decrease in cleaved caspase-8 expression in tumor at 50 mg/kg, ip by Western blot analysis; type: functional, organism-based
MCF7/ADM [27] = test: Activation of unfolded protein response in human MCF7/ADM cells at 25 uM incubated for 24 hrs by PROTEOSTATR aggresome dye based fluorescent microscopy; type: functional, cell-based
[28] = molecular target: T2, ATP-dependent translocase ABCB1; test: Inhibition of P-gp in human A549/DDP cells at 6.25 to 25 uM incubated for 24 hrs; type: cell-based; details: dose 6.25-25 µM
MCF7/ADM [29] = test: Antitumor activity against human MCF7/ADM cells xenografted in BALB/c mouse assessed as increase in ATF6 expression in tumor at 50 mg/kg, ip by Western blot analysis; type: functional, organism-based
MCF7/ADM [30] = test: Induction of oxidative stress in human MCF7/ADM cells at 25 uM measured for 24 hrs; type: functional, cell-based
[31] = Toxicity in BALB/c mouse xenografted with human MCF7/ADM cells assessed as spleen damage at 50 mg/kg, ip by H and E staining based analysis; type: organism-based; details: in vivo
MCF7/ADM [32] = test: Antitumor activity against human MCF7/ADM cells xenografted in BALB/c mouse assessed as reduction in p-110beta expression in tumor at 50 mg/kg, ip by Western blot analysis; type: functional, organism-based
A549/CDDP [33] = test: Upregulation of p-IRE1 expression in human A549/DDP cells at 0.25 to 25 uM incubated for 24 hrs by Western blot analysis; type: functional, cell-based; details: dose 0.25-25 µM
A549/CDDP [34] = test: Induction of apoptosis in human A549/DDP cells assessed as decrease in bcl-2 expression at 12.5 uM incubated for 24 hrs by Western blot analysis; type: functional, cell-based

T2 sequence (P08183 whole entry): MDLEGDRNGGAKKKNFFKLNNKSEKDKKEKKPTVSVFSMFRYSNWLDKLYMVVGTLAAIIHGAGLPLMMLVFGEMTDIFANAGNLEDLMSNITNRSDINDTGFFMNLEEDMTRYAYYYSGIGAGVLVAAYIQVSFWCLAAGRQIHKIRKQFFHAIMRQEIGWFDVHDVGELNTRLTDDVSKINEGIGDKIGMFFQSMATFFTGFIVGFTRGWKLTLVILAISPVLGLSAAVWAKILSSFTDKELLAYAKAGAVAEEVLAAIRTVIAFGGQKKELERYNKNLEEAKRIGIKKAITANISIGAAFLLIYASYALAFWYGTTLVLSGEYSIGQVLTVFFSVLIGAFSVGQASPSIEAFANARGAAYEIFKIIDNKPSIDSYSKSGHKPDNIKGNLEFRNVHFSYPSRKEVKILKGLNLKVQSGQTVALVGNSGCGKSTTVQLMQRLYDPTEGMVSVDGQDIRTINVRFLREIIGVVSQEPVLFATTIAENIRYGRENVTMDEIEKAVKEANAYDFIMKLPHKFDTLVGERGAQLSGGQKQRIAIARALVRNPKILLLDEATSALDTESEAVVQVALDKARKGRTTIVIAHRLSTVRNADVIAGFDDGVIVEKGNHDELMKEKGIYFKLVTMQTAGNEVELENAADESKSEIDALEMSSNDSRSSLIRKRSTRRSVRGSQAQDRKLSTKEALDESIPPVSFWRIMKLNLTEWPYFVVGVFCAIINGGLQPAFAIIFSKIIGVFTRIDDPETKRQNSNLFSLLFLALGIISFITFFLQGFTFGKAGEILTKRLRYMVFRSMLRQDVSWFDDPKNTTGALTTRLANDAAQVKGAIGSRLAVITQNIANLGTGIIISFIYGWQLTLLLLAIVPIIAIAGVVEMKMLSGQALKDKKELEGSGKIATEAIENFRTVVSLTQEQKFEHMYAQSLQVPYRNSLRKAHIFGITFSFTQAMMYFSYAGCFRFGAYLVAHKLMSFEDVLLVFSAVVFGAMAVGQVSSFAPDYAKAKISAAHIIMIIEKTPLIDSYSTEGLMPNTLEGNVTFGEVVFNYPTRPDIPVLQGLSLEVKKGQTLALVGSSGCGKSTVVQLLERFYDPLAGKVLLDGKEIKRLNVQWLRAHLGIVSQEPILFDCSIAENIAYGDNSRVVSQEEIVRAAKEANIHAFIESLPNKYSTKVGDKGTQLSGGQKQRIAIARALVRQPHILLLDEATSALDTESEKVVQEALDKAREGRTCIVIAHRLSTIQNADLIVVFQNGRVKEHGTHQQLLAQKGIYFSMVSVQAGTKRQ
T1 sequence (P40337 whole entry, looked up, canonical isoform): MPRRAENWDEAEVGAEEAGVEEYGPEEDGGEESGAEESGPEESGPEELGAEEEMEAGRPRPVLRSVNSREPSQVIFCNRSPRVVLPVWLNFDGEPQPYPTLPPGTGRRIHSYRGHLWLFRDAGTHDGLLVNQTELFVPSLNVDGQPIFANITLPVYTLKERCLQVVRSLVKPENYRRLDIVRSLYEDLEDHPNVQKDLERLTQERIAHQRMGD
T1 sequence (P42338 whole entry, looked up, canonical isoform): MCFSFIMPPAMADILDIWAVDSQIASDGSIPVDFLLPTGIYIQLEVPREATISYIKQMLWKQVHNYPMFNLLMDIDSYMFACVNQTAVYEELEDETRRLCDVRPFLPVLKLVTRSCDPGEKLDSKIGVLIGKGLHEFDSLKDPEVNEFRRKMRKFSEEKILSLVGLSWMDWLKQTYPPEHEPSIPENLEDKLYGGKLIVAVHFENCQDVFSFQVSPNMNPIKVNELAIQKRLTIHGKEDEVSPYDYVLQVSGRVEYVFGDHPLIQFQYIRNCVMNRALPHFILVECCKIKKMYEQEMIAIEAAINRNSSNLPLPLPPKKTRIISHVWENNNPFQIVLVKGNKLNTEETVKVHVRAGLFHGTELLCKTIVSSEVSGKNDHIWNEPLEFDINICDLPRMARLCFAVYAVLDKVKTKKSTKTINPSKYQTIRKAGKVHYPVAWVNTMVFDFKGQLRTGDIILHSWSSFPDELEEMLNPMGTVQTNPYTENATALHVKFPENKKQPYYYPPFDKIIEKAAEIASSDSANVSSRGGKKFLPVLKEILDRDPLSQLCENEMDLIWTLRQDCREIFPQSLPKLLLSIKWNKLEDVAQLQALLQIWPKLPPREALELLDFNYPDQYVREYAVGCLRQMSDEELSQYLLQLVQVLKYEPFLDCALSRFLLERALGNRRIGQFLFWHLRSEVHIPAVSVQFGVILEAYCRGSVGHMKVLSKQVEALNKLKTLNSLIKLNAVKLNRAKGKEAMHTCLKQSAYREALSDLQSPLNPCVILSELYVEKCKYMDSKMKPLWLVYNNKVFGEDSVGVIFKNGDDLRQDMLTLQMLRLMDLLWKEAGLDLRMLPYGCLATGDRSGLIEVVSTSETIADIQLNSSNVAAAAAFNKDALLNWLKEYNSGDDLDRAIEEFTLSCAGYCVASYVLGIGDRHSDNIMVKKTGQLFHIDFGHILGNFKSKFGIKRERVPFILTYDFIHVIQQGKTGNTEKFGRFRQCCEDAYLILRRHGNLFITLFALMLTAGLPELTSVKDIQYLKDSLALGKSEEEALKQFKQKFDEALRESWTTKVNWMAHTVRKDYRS

SMILES | Activity (MCF7/ADM [1]) | Activity (Mitochondrial membrane) | Activity [2] | Activity [3] | inhibition (INH) [4] | Activity (MCF7/ADM [5]) | Activity [6] | Activity (MCF7/ADM [7]) | Activity [8] | Activity (MCF7/ADM [9]) | inhibition (INH) [10] | Activity (MCF7/ADM [11]) | Activity (MCF7/ADM [12]) | Activity (MCF7/ADM [13]) | Activity (A549/CDDP [14]) | Activity [15] | Activity [16] | Activity (A549/CDDP [17]) | Activity [18] | Activity [19] | other results
Cc1cc(C(C)Nc2ccccc2C(=O)NCCOCCOCCC(=O)N[C@H](C(=O)N2C[C@H](O)C[C@H]2C(=O)NCc2ccc(-c3scnc3C)cc2)C(C)(C)C)c2nc(N3CCOCC3)cc(=O)n2c1 (stereo partly specified) | Active | Active | Active | Active | Active | Active | Dose-dependent-effect | Active | Non-toxic | Active | Active | Active | Active | Active | Active | Non-toxic | Non-toxic | Active | Active | Non-toxic | IC50 [20]: 30.2 µM; Activity [21]: Non-toxic; Activity (MCF7/ADM [22]): Active; Activity [23]: Active; Activity [24]: Non-toxic; Activity [25]: Non-toxic; Activity (MCF7/ADM [26]): Active; Activity (MCF7/ADM [27]): Active; inhibition (INH) [28]: Active; Activity (MCF7/ADM [29]): Active; Activity (MCF7/ADM [30]): Active; Activity [31]: Non-toxic; Activity (MCF7/ADM [32]): Active; Activity (A549/CDDP [33]): Active; Activity (A549/CDDP [34]): Active
Cc1cc(C(C)Nc2ccccc2C(=O)NCCCCCCC(=O)N[C@H](C(=O)N2C[C@H](O)C[C@H]2C(=O)NCc2ccc(-c3scnc3C)cc2)C(C)(C)C)c2nc(N3CCOCC3)cc(=O)n2c1 (stereo partly specified) | Active | Active | Active | Active | Active | Active | Dose-dependent-effect | Active | Non-toxic | Active | Active | Active | Active | Active | Active | Non-toxic | Non-toxic | Active | Active | Non-toxic | DC50 [6]: > 30 µM; IC50 [20]: 38.7 µM; Activity [21]: Non-toxic; Activity (MCF7/ADM [22]): Active; Activity [23]: Active; Activity [24]: Non-toxic; Activity [25]: Non-toxic; Activity (MCF7/ADM [26]): Active; Activity (MCF7/ADM [27]): Active; inhibition (INH) [28]: Active; Activity (MCF7/ADM [29]): Active; Activity (MCF7/ADM [30]): Active; Activity [31]: Non-toxic; Activity (MCF7/ADM [32]): Active; Activity (A549/CDDP [33]): Active; Activity (A549/CDDP [34]): Active
